From patent publication US7842802B2, “Vinorelbine derivatives” (priority 2003, dated 2010)
Counter-ions that a name gives are not always drawn. Like-named read-outs stand apart in the source and are kept apart here.

Columns and labels:
[1] = tested on: HeLa S-3 human cervical carcinoma cell line; test: HeLa GI50 determination (SRB); assay type: cell-based; settings: Homo sapiens, HeLa S3, 48 h, read-out: HeLa Cells GI50
Procedure: Growth inhibition (GI50) values were measured on the human cervical carcinoma cell line, HeLa S-3, which were selected for growth on plastic. The HeLa cell assay was based on the description of Skehan et al., J. Natl. Cancer Inst., 82:1107-12 (1990), which is hereby incorporated by reference in its entirety. HeLa cells were plated at 2×10^4 cells/well in 96 well plates. One day later, a control plate was fixed by the addition of TCA to 5%. After five rinses with tap water, the plate was air-dried and stored at 4° C. Test compounds were added to the remaining plates at 10-fold dilutions. Two days later, all plates were fixed as described above. Cells were then stained by the addition of 100 μL per well of 0.4% sulforhodamine B (SRB) in 1% acetic acid for 30 min at 4° C. Wells were then quickly rinsed 5× with 1% acetic acid and allowed to air dry. The SRB was then solubilized by the addition of 100 μL per well of unbuffered 10 mM Tris base. Dye was quantified by measuring absorbance at 490 nm on a Molecular Devices microplate reader. Growth inhibition was calculated according to the following equation: GI=100×(T−T0)/(C−T0), where the optical density (OD) of the test well after 2 days of treatment was T, the OD of the wells in the control plate on day 0 was T0 and C was the OD of untreated wells. Plots of percent growth inhibition versus inhibitor concentration were used to determine the GI50.

[2] = tested on: MCF-7 human breast carcinoma line; test: MCF-7 GI50 determination (crystal violet); assay type: cell-based; settings: Homo sapiens, MCF7, 96 h, read-out: MCF-7 Cells GI50
Procedure: Growth inhibition (GI50) values were measured on the human breast carcinoma line, MCF-7. MCF-7 cells were plated at 2×10^4 cells/well in 96 well plates and grown for 24 hours in drug free media. On day 2, test compounds were added to the plates at 10-fold dilutions. Four days later, cells were fixed by the addition of glutaraldehyde to 0.75%. After 30 min, the fixed cells were extensively rinsed with distilled water and dried at room temperature for one hour. The cells were then stained with a 0.2% crystal violet solution for one hour at room temperature. Unbound stain was removed by ten rinses with tap water and plates were allowed to air dry for 30 min. The crystal violet was then solubilized by the addition of 10% acetic acid for 15 min and quantified by measuring absorbance at 570 nm on a Molecular Devices microplate reader. Growth inhibition was calculated according to the following equation: GI=[…], where the optical density (OD) of the test well after 4 days of treatment was T, the OD of the wells in the control plate on day 0 was T0. Plots of percent growth inhibition versus inhibitor concentration were used to determine the GI50.

[3] = HeLa S-3, 2 days of treatment, SRB
[4] = MCF-7, 4 days of treatment, crystal violet

With CCC1=C[C@H]2CN(C1)Cc1c([nH]c3ccc(SCCC(=O)OC)cc13)[C@@](C(=O)OC)(c1cc3c(cc1OC)N(C)[C@H]1[C@@](O)(C(=O)OC)[C@H](OC(C)=O)C4C(CC)=CCN5CC[C@]31[C@H]45)C2 (stereo partly drawn) (as salt: tartrate) [Example 7, 11′-(methoxycarbonylethylsulfanyl) vinorelbine] the melting point was 140 to 170 °C (dec.).

For CCC1=C[C@H]2CN(C1)Cc1c([nH]c3ccc(C#CCOC)cc13)[C@@](C(=O)OC)(c1cc3c(cc1OC)N(C)[C@H]1[C@@](O)(C(=O)OC)[C@H](OC(C)=O)C4C(CC)=CCN5CC[C@]31[C@H]45)C2 (stereo partly drawn) [Example 24, 11′-(3-methoxypropynyl)vinorelbine], the GI50 [1, 3] was 100 nM and the GI50 [2, 4] was 300 nM.

CCC1=C[C@H]2CN(C1)Cc1c([nH]c3ccc(C#N)cc13)[C@@](C(=O)OC)(c1cc3c(cc1OC)N(C)[C@H]1[C@@](O)(C(=O)OC)[C@H](OC(C)=O)C4C(CC)=CCN5CC[C@]31[C@H]45)C2 (stereo partly drawn) [Example 25, 11′-cyanovinorelbine] showed a GI50 [1, 3] of 1 nM and a GI50 [2, 4] of 6 nM.

Molecule CCC1=C[C@H]2CN(C1)Cc1c([nH]c3ccc(C(C)=O)cc13)[C@@](C(=O)OC)(c1cc3c(cc1OC)N(C)[C@H]1[C@@](O)(C(=O)OC)[C@H](OC(C)=O)C4C(CC)=CCN5CC[C@]31[C@H]45)C2 (stereo partly drawn) [Example 26, 11′-acetylvinorelbine] has a GI50 [1, 3] of 4 nM and a GI50 [2, 4] of 20 nM.

For CCC1=C[C@H]2CN(C1)Cc1c([nH]c3ccc(C(=O)OC)cc13)[C@@](C(=O)OC)(c1cc3c(cc1OC)N(C)[C@H]1[C@@](O)(C(=O)OC)[C@H](OC(C)=O)C4C(CC)=CCN5CC[C@]31[C@H]45)C2 (stereo partly drawn) [Example 27, 11′-(methoxycarbonyl) vinorelbine], the GI50 [1, 3] was 30 nM and the GI50 [2, 4] was 50 nM.

Molecule CCC1=C[C@H]2CN(C1)Cc1c([nH]c3ccc(C(=O)OCC(Cl)(Cl)Cl)cc13)[C@@](C(=O)OC)(c1cc3c(cc1OC)N(C)[C@H]1[C@@](O)(C(=O)OC)[C@H](OC(C)=O)C4C(CC)=CCN5CC[C@]31[C@H]45)C2 (stereo partly drawn) [Example 28, 11′-(2,2,2-trichloroethoxycarbonyl) vinorelbine] has a GI50 [1] of 300 nM and a GI50 [2] greater than 1000 nM.

CCC1=C[C@H]2CN(C1)Cc1c([nH]c3ccc(C(=O)OCC(Cl)Cl)cc13)[C@@](C(=O)OC)(c1cc3c(cc1OC)N(C)[C@H]1[C@@](O)(C(=O)OC)[C@H](OC(C)=O)C4C(CC)=CCN5CC[C@]31[C@H]45)C2 (stereo partly drawn) [Example 29, 11′-(2,2-dichloroethoxycarbonyl)vinorelbine] showed a GI50 [1, 3] of 70 nM and a GI50 [2, 4] of 300 nM.

Molecule CCC1=C[C@H]2CN(C1)Cc1c([nH]c3ccc(-c4ccccc4)cc13)[C@@](C(=O)OC)(c1cc3c(cc1OC)N(C)[C@H]1[C@@](O)(C(=O)OC)[C@H](OC(C)=O)C4C(CC)=CCN5CC[C@]31[C@H]45)C2 (stereo partly drawn) [Example 30, 11′-phenylvinorelbine] has a GI50 [1, 3] of 70 nM and a GI50 [2, 4] of 300 nM.

CCC1=C[C@H]2CN(C1)Cc1c([nH]c3ccc(-c4cccc(O)c4)cc13)[C@@](C(=O)OC)(c1cc3c(cc1OC)N(C)[C@H]1[C@@](O)(C(=O)OC)[C@H](OC(C)=O)C4C(CC)=CCN5CC[C@]31[C@H]45)C2 (stereo partly drawn) [Example 31, 11′-(3-hydroxyphenyl) vinorelbine] showed a GI50 [1, 3] of 300 nM and a GI50 [2, 4] of 600 nM.

For CCC1=C[C@H]2CN(C1)Cc1c([nH]c3ccc(-c4c(C)noc4C)cc13)[C@@](C(=O)OC)(c1cc3c(cc1OC)N(C)[C@H]1[C@@](O)(C(=O)OC)[C@H](OC(C)=O)C4C(CC)=CCN5CC[C@]31[C@H]45)C2 (stereo partly drawn) [Example 32, 11′-(3,5-dimethylisoxazol-4yl)vinorelbine], the GI50 [1, 3] was 300 nM and the GI50 [2, 4] was 400 nM.

CCC1=C[C@H]2CN(C1)Cc1c([nH]c3ccc(C)cc13)[C@@](C(=O)OC)(c1cc3c(cc1OC)N(C)[C@H]1[C@@](OC)(C(=O)OC)[C@H](OC(C)=O)C4C(CC)=CCN5CC[C@]31[C@H]45)C2 (stereo partly drawn) [Example 33, 3,11′-dimethyl vinorelbine] showed a GI50 [1, 3] of 30 nM and a GI50 [2, 4] of 50 nM.

In the case of CCC1=C[C@H]2CN(C1)Cc1c([nH]c3ccc(I)cc13)[C@@](C(=O)OC)(c1cc3c(cc1OC)N(C)[C@H]1[C@@](OC)(C(=O)OC)[C@H](OC(C)=O)C4C(CC)=CCN5CC[C@]31[C@H]45)C2 (stereo partly drawn) [Example 34, 3-methyl-11′-iodo vinorelbine], the GI50 [1, 3] is reported as 30 nM and the GI50 [2, 4] is reported as 30 nM.

CCC1=C[C@H]2CN(C1)Cc1c([nH]c3ccc(N)cc13)[C@@](C(=O)OC)(c1cc3c(cc1OC)N(C)[C@H]1[C@@](O)(C(=O)OC)[C@H](OC(C)=O)C4C(CC)=CCN5CC[C@]31[C@H]45)C2 (stereo partly drawn) [Example 35, 11′-aminovinorelbine] showed a GI50 [1, 3] of 300 nM and a GI50 [2, 4] of 600 nM.

In the case of CCC1=C[C@H]2CN(C1)Cc1c([nH]c3ccc(Nc4ccc(OC)cc4)cc13)[C@@](C(=O)OC)(c1cc3c(cc1OC)N(C)[C@H]1[C@@](O)(C(=O)OC)[C@H](OC(C)=O)C4C(CC)=CCN5CC[C@]31[C@H]45)C2 (stereo partly drawn) [Example 36, 11′-(4-methoxyphenylamino)vinorelbine], the GI50 [1, 3] is reported as 300 nM and the GI50 [2, 4] is reported as 400 nM.
